Test results reported in the NIST ThermoML archive (doi:10.1016/j.jct.2006.09.017).

Key:
[1] = 101.33 kPa, Liquid
[2] = xn = mol fraction of the nth substance listed; settings: 101 kPa, Liquid

CCCCCCCO [heptan-1-ol]
[1]
Settings | mass density [kg/m3]
283.15 K | 829.27
298.15 K | 818.78
313.15 K | 808.11

CN1CCN(C)C1=O [1,3-dimethyl-2-imidazolidinone] + CCCO
mass density [kg/m3], [2]
Settings | x1 = 0.09998 | x1 = 0.2 | x1 = 0.2999 | x1 = 0.4001 | x1 = 0.4998 | x1 = 0.6001 | x1 = 0.7 | x1 = 0.7999 | x1 = 0.9
283.15 K | 847.83 | 880.77 | 910.83 | 938.4 | 963.7 | 987.2 | 1008.86 | 1028.91 | 1047.62
298.15 K | 835.55 | 868.25 | 898.06 | 925.54 | 950.74 | 974.16 | 995.74 | 1015.73 | 1034.43
313.15 K | 823.05 | 855.56 | 885.22 | 912.63 | 937.7 | 961.08 | 982.62 | 1002.67 | 1021.31

CCCCCCCCO [octan-1-ol]
[1]
Settings | mass density [kg/m3]
283.15 K | 832.06
298.15 K | 821.72
313.15 K | 811.21

CCO [ethanol]
[1]
Settings | mass density [kg/m3]
283.15 K | 797.88
298.15 K | 785.13
313.15 K | 772.05

CCCCCCO [hexan-1-ol]
[1]
Settings | mass density [kg/m3]
283.15 K | 826.03
298.15 K | 815.34
313.15 K | 804.46

CCCO [propan-1-ol]
[1]
Settings | mass density [kg/m3]
283.15 K | 811.54
298.15 K | 799.59
313.15 K | 787.36

CN1CCN(C)C1=O [1,3-dimethyl-2-imidazolidinone] + CCCCCCCO
mass density [kg/m3], [2]
Settings | x1 = 0.09996 | x1 = 0.1999 | x1 = 0.3001 | x1 = 0.4 | x1 = 0.5 | x1 = 0.6001 | x1 = 0.7 | x1 = 0.8001 | x1 = 0.8992
283.15 K | 847.64 | 866.92 | 887.24 | 908.58 | 931.08 | 954.87 | 979.95 | 1006.61 | 1034.61
298.15 K | 836.89 | 855.89 | 875.96 | 897.05 | 919.28 | 942.82 | 967.68 | 994.04 | 1021.77
313.15 K | 826.03 | 844.8 | 864.62 | 885.45 | 907.49 | 930.78 | 955.41 | 981.47 | 1009.02

CO [methanol]
[1]
Settings | mass density [kg/m3]
283.15 K | 800.62
298.15 K | 786.56
313.15 K | 772.32

CN1CCN(C)C1=O [1,3-dimethyl-2-imidazolidinone] + CCCCO
mass density [kg/m3], [2]
Settings | x1 = 0.09992 | x1 = 0.2 | x1 = 0.3 | x1 = 0.4002 | x1 = 0.5 | x1 = 0.6 | x1 = 0.7002 | x1 = 0.7999 | x1 = 0.9001
283.15 K | 846.49 | 874.68 | 901.72 | 927.79 | 952.85 | 976.95 | 1000.25 | 1022.61 | 1044.18
298.15 K | 834.78 | 862.67 | 889.49 | 915.33 | 940.22 | 964.19 | 987.34 | 1009.57 | 1031.03
313.15 K | 822.87 | 850.54 | 877.11 | 902.78 | 927.48 | 951.32 | 974.35 | 996.45 | 1017.84

CN1CCN(C)C1=O [1,3-dimethyl-2-imidazolidinone]
[1]
Settings | mass density [kg/m3]
283.15 K | 1064.86
298.15 K | 1051.59
313.15 K | 1038.38

CCCCCO [pentan-1-ol]
[1]
Settings | mass density [kg/m3]
283.15 K | 821.81
298.15 K | 810.88
313.15 K | 799.71

CN1CCN(C)C1=O [1,3-dimethyl-2-imidazolidinone] + CCCCCO
mass density [kg/m3], [2]
Settings | x1 = 0.1 | x1 = 0.2 | x1 = 0.3 | x1 = 0.4001 | x1 = 0.5001 | x1 = 0.6001 | x1 = 0.7 | x1 = 0.8002 | x1 = 0.9
283.15 K | 846.41 | 870.95 | 895.43 | 919.88 | 944.23 | 968.5 | 992.7 | 1016.92 | 1040.93
298.15 K | 835.16 | 859.39 | 883.62 | 907.84 | 931.97 | 956.02 | 980.01 | 1004.03 | 1027.87
313.15 K | 823.75 | 847.72 | 871.72 | 895.74 | 919.68 | 943.56 | 967.36 | 991.25 | 1014.87

CN1CCN(C)C1=O [1,3-dimethyl-2-imidazolidinone] + CCCCCCCCO
mass density [kg/m3], [2]
Settings | x1 = 0.09996 | x1 = 0.2 | x1 = 0.3002 | x1 = 0.4001 | x1 = 0.5 | x1 = 0.599 | x1 = 0.7002 | x1 = 0.7996 | x1 = 0.8999
283.15 K | 848.3 | 865.7 | 884.37 | 904.35 | 925.89 | 948.94 | 974.48 | 1001.78 | 1031.95
298.15 K | 837.74 | 854.88 | 873.28 | 893.01 | 914.29 | 937.08 | 962.3 | 989.29 | 1019.12
313.15 K | 827.05 | 843.97 | 862.14 | 881.63 | 902.66 | 925.21 | 950.12 | 976.81 | 1006.31

CN1CCN(C)C1=O [1,3-dimethyl-2-imidazolidinone] + CCCCCCO
mass density [kg/m3], [2]
Settings | x1 = 0.1 | x1 = 0.2 | x1 = 0.3 | x1 = 0.4001 | x1 = 0.5 | x1 = 0.6001 | x1 = 0.7002 | x1 = 0.7998 | x1 = 0.9001
283.15 K | 847.11 | 868.74 | 890.96 | 913.77 | 937.21 | 961.32 | 986.12 | 1011.48 | 1037.74
298.15 K | 836.15 | 857.49 | 879.43 | 901.99 | 925.23 | 949.12 | 973.62 | 998.72 | 1024.71
313.15 K | 825.02 | 846.12 | 867.81 | 890.13 | 913.07 | 936.71 | 961.04 | 985.96 | 1011.88

CCCCO [butan-1-ol]
[1]
Settings | mass density [kg/m3]
283.15 K | 817.18
298.15 K | 805.79
313.15 K | 794.18

CN1CCN(C)C1=O [1,3-dimethyl-2-imidazolidinone] + CO
mass density [kg/m3], [2]
Settings | x1 = 0.09987 | x1 = 0.1999 | x1 = 0.2999 | x1 = 0.4 | x1 = 0.4985 | x1 = 0.6002 | x1 = 0.7001 | x1 = 0.8002 | x1 = 0.9003
283.15 K | 866.6 | 914.65 | 950.88 | 978.91 | 1000.83 | 1019.06 | 1033.62 | 1045.88 | 1056.16
298.15 K | 852.53 | 900.56 | 936.99 | 965.04 | 987.09 | 1005.48 | 1020.04 | 1032.47 | 1042.89
313.15 K | 838.25 | 886.37 | 922.85 | 951.05 | 973.2 | 991.72 | 1006.43 | 1019.04 | 1029.49

CN1CCN(C)C1=O [1,3-dimethyl-2-imidazolidinone] + CCO
mass density [kg/m3], [2]
Settings | x1 = 0.09998 | x1 = 0.2 | x1 = 0.3001 | x1 = 0.3999 | x1 = 0.4996 | x1 = 0.6002 | x1 = 0.6999 | x1 = 0.8 | x1 = 0.8994
283.15 K | 846.13 | 886.41 | 920.6 | 949.96 | 975.63 | 998.13 | 1017.79 | 1035.31 | 1050.79
298.15 K | 833.1 | 873.26 | 907.41 | 936.72 | 962.36 | 984.83 | 1004.56 | 1022.19 | 1037.59
313.15 K | 819.85 | 859.85 | 893.96 | 923.29 | 948.92 | 971.48 | 991.29 | 1008.94 | 1024.41
